Read-outs that look alike come from different tables or passages of the source.
Key:
[1] = system: disturbances of the sleeping-waking rhythm, insomnia; assay: Clinical tests: disturbances of the sleeping-waking rhythm; type: in vivo, human; settings: 4-13 mg orally
[2] = system: sleeping time induced by hexobarbital; assay: Hexobarbital sleeping time in mice (Holten and Larsen); type: in vivo
Procedure: A further aspect considered by us was the possible action of SAM on the sleeping time by barbiturates.
For this purpose an experiment was carried out in which groups of mice received hexobarbital in a dose of 80 mg/kg/i.p. in accordance with the method of Holten and Larsen (Acta Pharmacol. Toxicol. 1956, 12, 346); one group was the control group and the second received SAM in a dose of 4 mg/kg/i.p. (table).

arthritis by adjuvant = assay: Arthritis by adjuvant (chronic inflammation); type: in vivo; settings: orally 8 to 40 mg/kg; parenterally 4 to 8 mg/kg; in comparison with Ibuprofen, Indometacina
Source text: (§1) Of the various tests we shall mention the most classic, namely the edema by carragenine and by egg white as a test for acute inflammation; and granuloma by cotton pellets and arthritis by adjuvant as a test for chronic inflammation. […] The analgesia tests were in the form of the hot plate test and stretching by acetic acid, and the Randal and Selitto test in the rat.

depressive forms = assay: Clinical tests: depressive forms (tests of Hamilton and Wittenberg); type: in vivo, human; settings: 8 to 20 mg 3-4 times per day, 5-15 days, no other therapy
rats = settings: rat, in vivo
cat = settings: in vivo, 16 mg/kg
hot plate test = assay: Hot plate analgesia test; type: in vivo; settings: in comparison with known drugs studied
Source text: as §1

rabbit [3] = assay: Local tolerability of injections; type: in vivo
[4] = system: granuloma by cotton pellets; assay: Granuloma by cotton pellets (chronic inflammation); type: in vivo; settings: orally 8 to 40 mg/kg; parenterally 4 to 8 mg/kg; in comparison with Ibuprofen, Indometacina
Source text: as §1

[5] = system: Parkinsons disease and Parkinsonisms; assay: Clinical tests: Parkinsons disease and Parkinsonisms, with Levodopa; type: in vivo, human
[6] = system: clear arteriosclerosis with clinical manifestations of the psycho-affective sphere; assay: Clinical tests: arteriosclerosis, hypoxydotic states, post-apoplectic syndromes; type: in vivo, human
[7] = mouse, in vivo
Source text: Parallel with this, an autoradiographic study was made on the mouse.

[8] = in vivo, 4.2 mg/kg; for Distribution of SAM in rat tissues: Hypophysis / Distribution of SAM in rat tissues: Hypothalamus / Distribution of SAM in rat tissues: Liver / Distribution of SAM in rat tissues: Plasma / Distribution of SAM in rat tissues: Rind / Distribution of SAM in rat tissues: Spleen / Distribution of SAM in rat tissues: Suprarenal glands: iv
Procedure: In order to indicatively determine how SAM is distributed in the tissues, S-Adenosilmethionine (Methyl C^14) was prepared. The distribution of this product in rats was studied by administering a dose of 4.2 mg/kg/e.v. equal to approxymately 10 μci of radioactive product. The specific activity of the product was 58 mCi/m moles.

edema by carragenine = assay: Edema by carragenine (acute inflammation); type: in vivo; settings: orally 8 to 40 mg/kg; parenterally 4 to 8 mg/kg; in comparison with Ibuprofen, Indometacina
Source text: as §1

[9] = system: neuritis, polyneuritis, anthralgia, sciatica, radiocolitis, torticollis; cephalalgia
Procedure: The antalgic activity of SAM was also tested in different subjects with different neurological frameworks: neuritis, polyneuritis, anthralgia, sciatica, radiocolitis, torticollis.

rabbit [10] = settings: in vivo, 16 mg/kg
[11] = system: subjects with hypoprotidemias, disprotidemias, chronic hepatopathias, precyrrotic and cyrrotic states, malabsorption and protide dispersing syndromes; assay: Clinical tests: hypoprotidemias, chronic hepatopathias, cyrrotic states, malabsorption; type: in vivo, human; settings: 20 to 80 mg per day, intermuscular, intravenous or oral
Procedure: 2. Hundreds of subjects were treated clinically affected with: secondary hypoprotidemias and disprotidemias; persistent and aggressive chronic hepatopathias; precyrrotic and cyrrotic states; malabsorption syndromes, and protide dispersing syndromes.

[12] = system: stretching by acetic acid; assay: Stretching by acetic acid analgesia test; type: in vivo; settings: in comparison with known drugs studied
Source text: as §1

hepatic phospholipids = assay: Hepatic phospholipids in rats after intoxication with CCl4; type: in vivo, rat
Source text: (§2) This was confirmed by subsequent pharmacological tests.
Hepatic phospholipids in rats after intoxication with CCl4 and treatment with SAM.
(§3) The values are the averages ± E.S. of 10 values for each group. In studying the hepatoprotective activity we have used an experimental device which produces in the rat the so-called hepatic cholesterol degeneration (Ridout and Coll., Biochem. J. 52, 99, 1952).

rabbits = settings: rabbit, in vivo
mouse = assay: Acute toxicity (DL50) in the mouse; type: in vivo
Source text: In particular, the DL50 in the mouse in greater than 2.5 g/kg/os and 1.00 g/kg/i.p.

Randal and Selitto test = assay: Randal and Selitto analgesia test in the rat; type: in vivo; settings: in comparison with known drugs studied
Source text: as §1

osteoarthritic forms = assay: Clinical tests: osteoarthritis; type: in vivo, human
edema by egg white = assay: Edema by egg white (acute inflammation); type: in vivo; settings: orally 8 to 40 mg/kg; parenterally 4 to 8 mg/kg; in comparison with Ibuprofen, Indometacina
Source text: as §1

[13] = system: young volunteer healthy subjects of both sexes; assay: Tolerability in young volunteer healthy subjects; type: in vivo; settings: man, 5-150 mg
[14] = system: subjects with hyperdislipidemia in the uncompensated stage; assay: Clinical tests: hyperdislipidemia; type: in vivo, human; settings: 2-3 times per day
hepatic steatosis = assay: Hepatic steatosis models in rats (Handler diet, acute alcoholic intoxication, toxic agents); type: in vivo, rat
Source text: as §2

[15] = system: hepatic cholesterol degeneration; assay: Hepatic cholesterol degeneration in the rat (Ridout); type: in vivo; settings: for Fresh liver weight: three weeks
Source text: as §3
In this method, by means of a suitable diet, a conspicuous increase in the total hepatic fats and hepatic cholesterol are obtained in the animals. The substances which act in the lipidic metabolism reduce or annul this increase.
The animals were divided into six groups. The first group was administered with a diet which was varied at will. The second group was administered with the basic diet of Ridout (20 g per rat per day); the other groups were administered with the same diet in the same doses but enriched with cholesterol to the extent of 0.2 g/rat/day. The treatment lasted three weeks. The groups 4,5,6 were administered with SAM in the following doses:
0.4, 0.8, 2 mg/kg/i.p. per day.
At the end of the three weeks all the animals were killed, the livers were withdrawn and the total fats (Best and Coll., Biochem. J. 40, 368, 1966) and cholesterol (Sperry and Brand, J. Biol. Chem. 150, 315, 1943) were determined.

[16] = SAM content / stability on storage in the dry state; type: physicochemical; settings: 60 days at 45°
Procedure: The great technical progress achieved by these new salts is their stability with time at 45° in the dry state.
The SAM content of all acids according to the present invention remains unchanged even after […] at 45° in the dry state.

Compound: C[S+](CC[C@H](N)C(=O)O)C[C@H]1O[C@@H](n2cnc3c(N)ncnc32)[C@H](O)[C@@H]1O (stereo partly drawn) [SAM, S-Adenosil-L-Methionine]
- sleeping-waking ratios [1]: considerably improve
- prolonging the sleeping time induced by hexobarbital [2]: active in prolonging the sleeping time
- anti-inflammatory activity (arthritis by adjuvant): active
- remission of main parameters of depressive forms (depressive forms): a significant remissione of the main parameters
- teratogenic actions or malformations (rats): no teratogenic actions were encountered or any malformations
- carotid pressure, cardiac and respiratory frequency, electrocardiac trace (cat): does not cause any change
- analgesic activity (hot plate test): active
- local tolerability of the intramuscular injection (rabbit [3]; intramuscular, even repeated over 180 days): excellent
- local tolerability of the intravenous injection (rabbit [3]; intravenous, marginal vein of the auricular pavilion of the rabbit): excellent
- anti-inflammatory activity [4]: active
- akinesia and rigidity ([5]; 4-16 mg per day with Levodopa, vs patients treated only with Levodopa): a statistically more significant improvement
- extent of the Parkinson tremor ([5]; SAM in association with Levodopa): Favourable modifications
- Levodopa dependent psychic disturbances ([5]; depressive states and psychic manifestations of irritative type): distinctly improves
- Levodopa side effects ([5]; nausea, vomit, inappetite, hypotension, asthenia, cephalea, hypersudoration, insomnia, 4-16 mg per day): significantly blocks
- symptomatology in arteriosclerosis ([6]; intermuscular, intravenous or slow phleboclysis, 8 to 16 mg 3-4 times per day): a very favourable modification of the symptomatology
- improvement of the clinical framework in post-apoplectic syndromes ([6]; post-apoplectic syndromes): a greater rapidity was found in the improvement
- distribution to tissues [7]: distributed very rapidly to all the tissues
- Distribution of SAM in rat tissues: Hypophysis ([8]; 0.25 h): 2.3 μgr/gr
- Distribution of SAM in rat tissues: Hypothalamus ([8]; 0.25 h): 0.3 μgr/gr
- Distribution of SAM in rat tissues: Liver ([8]; 0.25 h): 1.7 μgr/gr
- Distribution of SAM in rat tissues: Plasma ([8]; 0.25 h): 7.5 μgr/gr
- Distribution of SAM in rat tissues: Rind ([8]; 0.25 h): 0.25 μgr/gr
- Distribution of SAM in rat tissues: Spleen ([8]; 0.25 h): 1.3 μgr/gr
- Distribution of SAM in rat tissues: Suprarenal glands ([8]; 0.25 h): 1.9 μgr/gr
- Distribution of SAM in rat tissues: Hypophysis ([8]; 1 h): 2.5 μgr/gr
- Distribution of SAM in rat tissues: Hypothalamus ([8]; 1 h): 0.65 μgr/gr
- Distribution of SAM in rat tissues: Liver ([8]; 1 h): 3.0 μgr/gr
- Distribution of SAM in rat tissues: Plasma ([8]; 1 h): 2.1 μgr/gr
- Distribution of SAM in rat tissues: Rind ([8]; 1 h): 0.45 μgr/gr
- Distribution of SAM in rat tissues: Spleen ([8]; 1 h): 1.2 μgr/gr
- Distribution of SAM in rat tissues: Suprarenal glands ([8]; 1 h): 3.4 μgr/gr
- Distribution of SAM in rat tissues: Hypophysis ([8]; 4 h): 8.0 μgr/gr
- Distribution of SAM in rat tissues: Hypothalamus ([8]; 4 h): 1.0 μgr/gr
- Distribution of SAM in rat tissues: Liver ([8]; 4 h): 5.5 μgr/gr
- Distribution of SAM in rat tissues: Plasma ([8]; 4 h): 2.3 μgr/gr
- Distribution of SAM in rat tissues: Rind ([8]; 4 h): 0.75 μgr/gr
- Distribution of SAM in rat tissues: Spleen ([8]; 4 h): 3.5 μgr/gr
- Distribution of SAM in rat tissues: Suprarenal glands ([8]; 4 h): 4.8 μgr/gr
- Distribution of SAM in rat tissues: Hypophysis ([8]; 8 h): 4.5 μgr/gr
- Distribution of SAM in rat tissues: Hypothalamus ([8]; 8 h): 1.3 μgr/gr
- Distribution of SAM in rat tissues: Liver ([8]; 8 h): 5.6 μgr/gr
- Distribution of SAM in rat tissues: Plasma ([8]; 8 h): 2.0 μgr/gr
- Distribution of SAM in rat tissues: Rind ([8]; 8 h): 8.5 μgr/gr
- Distribution of SAM in rat tissues: Spleen ([8]; 8 h): 2.6 μgr/gr
- Distribution of SAM in rat tissues: Suprarenal glands ([8]; 8 h): 4.5 μgr/gr
- Distribution of SAM in rat tissues: Hypophysis ([8]; 24 h): 4.2 μgr/gr
- Distribution of SAM in rat tissues: Hypothalamus ([8]; 24 h): 1.3 μgr/gr
- Distribution of SAM in rat tissues: Liver ([8]; 24 h): 5.7 μgr/gr
- Distribution of SAM in rat tissues: Plasma ([8]; 24 h): 1.1 μgr/gr
- Distribution of SAM in rat tissues: Rind ([8]; 24 h): 9.4 μgr/gr
- Distribution of SAM in rat tissues: Spleen ([8]; 24 h): 2.8 μgr/gr
- Distribution of SAM in rat tissues: Suprarenal glands ([8]; 24 h): 4.4 μgr/gr
- distribution to tissues ([8]; rat): distributed very rapidly to all the tissues
- anti-inflammatory activity (edema by carragenine): active
- therapeutic (antalgic) effect ([9]; neurological frameworks, 6 mg twice a day intermuscular or 13-20 mg 3-4 times per day orally): available and efficient from the first day of administration
- therapeutic effect in recurring and resistant cephalalgia ([9]; orally in masticable tablets): Analogous results were obtained
- carotid pressure, cardiac and respiratory frequency, electrocardiac trace (rabbit [10]): does not cause any change
- albumin level [11]: an increase in the albumin level
- percentage ratios between the electrophoretic fractions of the serum [11]: a tendency to normalise
- subjective symptomology and general objective conditions [11]: often very important improvement
- tests of hepatic functionality [11]: normalising of all the tests of hepatic functionality
- total protidemia [11]: a statistically significant increase
- analgesic activity [12]: active
- restoration of normal levels of phospholipids (hepatic phospholipids): favours the restoration of normal levels of phospholipids
- teratogenic actions or malformations (rabbits): no teratogenic actions were encountered or any malformations
- DL50 in the mouse (mouse; i.p.): > 1.00 g/kg
- DL50 in the mouse (mouse; os): greater than 2.5 g/kg
- analgesic activity (Randal and Selitto test): active
- activity in osteoarthritic forms (osteoarthritic forms; 13 mg twice a day intermuscular or intravenous, and 13-20 mg orally 4 times per day): active in all osteoarthritic forms
- muscular spasm, limitation of movement, localised pain and rigidity (osteoarthritic forms; after 7 days, with respect to the placebo): influenced in a statistically significant manner
- therapeutic efficiency vs non-steroid antiphlogistic drug (osteoarthritic forms; double blind study): equal to indomethacin
- anti-inflammatory activity (edema by egg white): active
- hemopoietic apparatus and hepatic and renal operation ([13]; intravenous): no variations from normal which were statistically significant
- electrocardiograph trace ([13]; intravenous, 30" to 20', PQ interval, ST section, extrasistol): does not show any variation
- minimum and maximum pressure, pulse and respiratory frequency ([13]; rapid intravenous or phleboclysis, 1 minute to 24 hours): does not show any variation from normal values
- dose dependence of hypocholesterolemising and hypolipemising action ([14]; doses of about 8-1.5 mg): proportional to the dose
- hypertriglyceridemia ([14]; hyperdislipidemia): a marked fall
- total cholesterolemia ([14]; hyperdislipidemia): a marked fall
- β/α lipoproteic ratios ([14]; hyperdislipidemia): normalises
- accumulation of lipids at the hepatocite level (hepatic steatosis): significantly reduces
- protection of the batch ([15]; 2 mg/kg/i.p.): completely protected
- protection of the batch ([15]; 0.4-0.8 mg/kg/i.p.): poorly protected
- Fresh liver weight ([15]; batch IV, 0.4 mg/kg/i.p. per day): 17 g
- Fresh liver weight ([15]; batch V, 0.8 mg/kg/i.p. per day): 16 g

Compound: C[S+](CC[C@H](N)C(=O)O)C[C@H]1O[C@@H](n2cnc3c(N)ncnc32)[C@H](O)[C@@H]1O (stereo partly shown) [chloride]
- decomposition after 60 days [16]: completely decomposed
